76 sequences from the OligoGym collection can be followed below.

Several values for one entry are separate records, joined by “and”; a condition that tells them apart may be missing. Identical values can stand only once. After the bases stand the sugars from the 5' end (letter, count) and the backbone: PS all phosphorothioate, else s phosphorothioate and o phosphodiester by linkage. Methylation of C is not given here. e = 2'-O-(2-methoxyethyl) (MOE); d = 2'-deoxy (DNA)

This data set has as its target DGAT2. The note with it: ASO.

For the sequence “CCAGGTAAGGCCGTATGCCT (sugars e5 d10 e5, PS)”, the target mRNA inhibition reads like this: (HepG2, 0.12 µM) 78% and 76%; (HepG2, 2.5 µM) 18%; (HepG2, 10 µM) 20%; (HepG2, 20 µM) 43%.
Regarding “CCAGTTTCGGACCCACTGTG (sugars e2 d13 e5, PS)”, the target mRNA inhibition by setting is: (HepG2, 0.12 µM) 80%; (HepG2, 2.5 µM) 12%; (HepG2, 10 µM) 25% and 50%; (HepG2, 20 µM) 50%.
In turn, “CCCAACCTTTAAGGCCTATC (sugars e5 d10 e5, PS)” yielded a target mRNA inhibition (HepG2, 2.5 µM) of 46% and a target mRNA inhibition (HepG2, 10 µM) of 85%.
Turning to “CCCACAGAAGAGCAAAGGCT (sugars e5 d10 e5, PS)”, the target mRNA inhibition runs as follows: (HepG2, 2.5 µM) 76% and 74%; (HepG2, 10 µM) 94% and 92%.
“CCCAGGAGCCCTCCTCGAAG (sugars e5 d10 e5, PS)”: for the setting “HepG2, 0.12 µM”, the target mRNA inhibition came out at 54%.
Consider “CCCCCACTGTCAGTCTCTCC (sugars e5 d10 e5, PS)”, for which the target mRNA inhibition by setting is: (HepG2, 2.5 µM) 37%; (HepG2, 10 µM) 76%.
Under “HepG2, 0.12 µM”, “CCCCTCGCGCGACAGCGCAG (sugars e5 d10 e5, PS)” yielded a target mRNA inhibition of 25%.
For the sequence “CCCTGGGACTCAGTGTCCTC (sugars e5 d10 e5, PS)”, the target mRNA inhibition reads like this: (HepG2, 2.5 µM) 90%; (HepG2, 10 µM) 83%.
On to “CCCTTGCGGTTCCGCAGGGT (sugars e5 d10 e5, PS)”, for which, under “HepG2, 0.12 µM”, the target mRNA inhibition amounted to 36%.
On to “CCGCGCAGGACCCCGGAGTA (sugars e3 d14 e3, PS)”, for which the target mRNA inhibition (HepG2, 0.12 µM) turned out to be 71%.
“CCGCGCAGGACCCCGGAGTA (sugars e5 d10 e5, PS)” yielded a target mRNA inhibition (HepG2, 0.12 µM) of 75%.
Same read-out and setting: in the case of “CCTACAGCAGAGGGAAGATG (sugars e5 d10 e5, PS)” it was 13%.
On to “CCTGCAGAAAAAGCAACCAA (sugars e5 d10 e5, PS)”, for which the target mRNA inhibition stood at 30% (HepG2, 2.5 µM) and 75% (HepG2, 10 µM).
On to “CCTGCTTGTACACTTCATTC (sugars e5 d10 e5, PS)”, for which the target mRNA inhibition was 51% (HepG2, 2.5 µM) and 87% (HepG2, 10 µM).
“CCTGGACAAGTCCTGCCCAT (sugars e5 d10 e5, PS)” returned a target mRNA inhibition (HepG2, 0.12 µM) of 73%.
Turning to “CCTGTAGCTGCTTTTCCACC (sugars e5 d10 e5, PS)”, under “HepG2, 0.12 µM”, the target mRNA inhibition is 29%.
Same read-out and setting: the same measure for “CGACAGCGCAGGTCCTCCGT (sugars e5 d10 e5, PS)”: 48%.
For the sequence “CGATTCACTGAGGACCTCAG (sugars e5 d10 e5, PS)”, the target mRNA inhibition is, setting by setting: (HepG2, 2.5 µM) 79%; (HepG2, 10 µM) 61%.
Turning to “CGCAGGACCCCGGAGTAGGC (sugars e3 d14 e3, PS)”, for the setting “HepG2, 0.12 µM”, the target mRNA inhibition turned out to be 65%.
Still for that read-out and setting: the same measure for “CGCAGGGCCAGTTTCACAAA (sugars e5 d10 e5, PS)”: 31%.
In the case of “CGCGATTCACTGAGGAC (sugars e3 d10 e4, PS)”, for the setting “HepG2, 2.5 µM”, the target mRNA inhibition is 73% and 74%.
For “CGGACTGAATGTCACCTCTT (sugars e5 d10 e5, PS)”, the target mRNA inhibition reads like this: (HepG2, 2.5 µM) 74% and 73%; (HepG2, 10 µM) 90% and 76%.
In turn, “CGGAGAGGATGCTGGATCCA (sugars e5 d10 e5, PS)” had a target mRNA inhibition (HepG2, 0.12 µM) of 47%.
As for “CGTGAGCTGGTGTTCTACAA (sugars e5 d10 e5, PS)”, the target mRNA inhibition (HepG2, 2.5 µM) was 59% and the target mRNA inhibition (HepG2, 10 µM) was 74%.
Regarding “CTCAGTTCTTCCAACCAGTG (sugars e5 d10 e5, PS)”, the target mRNA inhibition is 83% and 68% (HepG2, 2.5 µM); 93% and 91% (HepG2, 10 µM).
Consider “CTCCCATTCTTTGAAAGCAA (sugars e5 d10 e5, PS)”, for which the target mRNA inhibition runs as follows: (HepG2, 2.5 µM) 30%; (HepG2, 10 µM) 54%.
Where the note is “HepG2, 0.12 µM”, “CTCCTCCCCTTGGCAGAGAA (sugars e5 d10 e5, PS)” returned a target mRNA inhibition of 43%.
On to “CTCTCATTTCTTATCTTCAA (sugars e5 d10 e5, PS)”, for which the target mRNA inhibition is 70% (HepG2, 2.5 µM) and 93% (HepG2, 10 µM).
The sequence “CTCTCCAACTCCTCCCCTTG (sugars e5 d10 e5, PS)” had a target mRNA inhibition (HepG2, 0.12 µM) of 25%.
For the sequence “CTGACATGGTAAGTCCTGAT (sugars e5 d10 e5, PS)”, the target mRNA inhibition was 76% and 52% (HepG2, 2.5 µM); 93% and 89% (HepG2, 10 µM).
“CTGGACAAGTCCTGCCCATC (sugars e3 d14 e3, PS)”: the target mRNA inhibition (HepG2, 0.12 µM) was determined as 67%.
The same measure, in the same setting: the same measure for “CTGGAGGCCAGTCCAGGCTC (sugars e5 d10 e5, PS)”: 23%; for “CTGGCTCAGTTCACCTCCAG (sugars e5 d10 e5, PS)”: 90%.
Same read-out and setting: the same measure for “CTGTGACCTCCTGCCACCTT (sugars e5 d10 e5, PS)”: 25%.
In the case of “CTTACTGTTCAGCAGTCTGC (sugars e5 d10 e5, PS)”, the target mRNA inhibition is, setting by setting: (HepG2, 2.5 µM) 57%; (HepG2, 10 µM) 90%.
With “CTTCACCAGGGCCTCCATGT (sugars e5 d10 e5, PS)”, the target mRNA inhibition was determined as 46% (HepG2, 0.12 µM); 10% (HepG2, 2.5 µM); 66% (HepG2, 10 µM); 87% (HepG2, 20 µM).
With “CTTGCCAGGCATGGAGCTCA (sugars e5 d10 e5, PS)”, where the note is “HepG2, 0.12 µM”, the target mRNA inhibition stood at 51%.
On the same count and under the same terms, the same measure for “CTTGGAGTAGGGCACCAGCC (sugars e5 d10 e5, PS)”: 35%.
Take “CTTTGAGCATCCCCAATCCC (sugars e5 d10 e5, PS)”: the target mRNA inhibition by setting is: (HepG2, 2.5 µM) 14%; (HepG2, 10 µM) 75%.
As for “GAAACAGGCAGTAGGAAATC (sugars e5 d10 e5, PS)”, the target mRNA inhibition (HepG2, 0.12 µM) turned out to be 23%.
Same read-out and setting: the same measure for “GACCCACTGGAGCACTGAGA (sugars e2 d13 e5, PS)”: 70%; for “GACTGCATTCTTGCCAGGCA (sugars e5 d10 e5, PS)”: 60%.
Turning to “GAGCACAGCGATGAGCCAGC (sugars e5 d10 e5, PS)”, the target mRNA inhibition reads like this: (HepG2, 2.5 µM) 43%; (HepG2, 10 µM) 91%.
Take “GAGCAGGTTCATCTGCCTTG (sugars e5 d10 e5, PS)”: the target mRNA inhibition was 81% and 61% (HepG2, 2.5 µM); 92% and 83% (HepG2, 10 µM).
Regarding “GAGGAGTTCTCGAATATCCC (sugars e5 d10 e5, PS)”, the target mRNA inhibition by setting is: (HepG2, 2.5 µM) 43%; (HepG2, 10 µM) 80%.
For the setting “HepG2, 0.12 µM”, “GAGGCTCAGGCCTTGACAAC (sugars e5 d10 e5, PS)” had a target mRNA inhibition of 12%.
Still for that read-out and setting: the same measure for “GATATAGTTCCTGGTGGTCA (sugars e5 d10 e5, PS)”: 57%.
Regarding “GCAATGTTGCCATCATACTA (sugars e5 d10 e5, PS)”, the target mRNA inhibition runs as follows: (HepG2, 2.5 µM) 63%; (HepG2, 10 µM) 88%.
As to “GCACATCTCTTCCATCTCCA (sugars e5 d10 e5, PS)”, the target mRNA inhibition by setting is: (HepG2, 2.5 µM) 74%; (HepG2, 10 µM) 92%.
For the sequence “GCACTCTGTGATGCTCTGGA (sugars e5 d10 e5, PS)”, the target mRNA inhibition (HepG2, 10 µM) was 90% and 84%.
As to “GCAGCCTACAAGAGCCTGTT (sugars e5 d10 e5, PS)”, the target mRNA inhibition worked out at 59% (HepG2, 2.5 µM) and 89% (HepG2, 10 µM).
For “GCAGGTTGTGTGTCTTCACC (sugars e5 d10 e5, PS)”, the target mRNA inhibition (HepG2, 0.12 µM) was 65% and 73%.
With “GCATGAACAAGGGCAAGTCC (sugars e5 d10 e5, PS)”, the target mRNA inhibition came out at 79% (HepG2, 2.5 µM) and 89% (HepG2, 10 µM).
Regarding “GCATGGAGCTCAGAGACTCA (sugars e2 d13 e5, PS)”, the target mRNA inhibition (HepG2, 0.12 µM) stood at 77%.
Same read-out and setting: the same measure for “GCATGGAGCTCAGAGACTCA (sugars e3 d14 e3, PS)”: 51%; for “GCATTGCCACTCCCATTCTT (sugars e2 d13 e5, PS)”: 61%.
The same measure, in the same setting: the same measure for “GCATTGCCACTCCCATTCTT (sugars e3 d14 e3, PS)”: 85%; for “GCATTTTAACAAGATCCCCA (sugars e5 d10 e5, PS)”: 34%.
Same read-out and setting: in the case of “GCCACCCCCATCCTCATCCT (sugars e5 d10 e5, PS)” it was 0%.
For “GCCAGAGTTATCCTCAATTC (sugars e5 d10 e5, PS)”, the target mRNA inhibition is, setting by setting: (HepG2, 2.5 µM) 89%; (HepG2, 10 µM) 78%.
For the setting “HepG2, 0.12 µM”, “GCCAGTGTAGCCAGGTAAGG (sugars e5 d10 e5, PS)” had a target mRNA inhibition of 9%.
For the sequence “GCCCAATATCTGATATCAAA (sugars e5 d10 e5, PS)”, the target mRNA inhibition (HepG2, 2.5 µM) was 80% and 69%; the target mRNA inhibition (HepG2, 10 µM) is 89% and 84%.
Regarding “GCCCAGTTTCGGACCCACTG (sugars e3 d14 e3, PS)”, under “HepG2, 0.12 µM”, the target mRNA inhibition came to 81%.
Same read-out and setting: in the case of “GCCGTATGCCTGGGAACTTC (sugars e5 d10 e5, PS)” it was 29%; in that of “GCCTCCATGTACATGGTGTG (sugars e5 d10 e5, PS)”, 63%.
Regarding “GCCTGGACAAGTCCTGC (sugars e3 d10 e4, PS)”, the target mRNA inhibition (HepG2, 2.5 µM) is 68% and 75%; the target mRNA inhibition (HepG2, 10 µM) was 89% and 97%.
“GCGCAGGACCCCGGAGTAGG (sugars e2 d13 e5, PS)”: the target mRNA inhibition (HepG2, 0.12 µM) was found to be 72%.
Still for that read-out and setting: the same measure for “GCGCAGGACCCCGGAGTAGG (sugars e5 d10 e5, PS)”: 79%.
Regarding “GCTAAGGAAAACTTAGGCAT (sugars e5 d10 e5, PS)”, the target mRNA inhibition (HepG2, 2.5 µM) stood at 56%; the target mRNA inhibition (HepG2, 10 µM) is 89% and 85%.
Regarding “GCTATAGAATCAGACAGACC (sugars e5 d10 e5, PS)”, the target mRNA inhibition (HepG2, 0.12 µM) was found to be 46%.
Sequence “GCTCAGAGACTCAGCCGCAC (sugars e2 d13 e5, PS)” returned a target mRNA inhibition (HepG2, 0.12 µM) of 82%; a target mRNA inhibition (HepG2, 2.5 µM) of 13%; a target mRNA inhibition (HepG2, 10 µM) of 35%; a target mRNA inhibition (HepG2, 20 µM) of 66%.
For “GCTCAGTTCTTCCAACCAGT (sugars e5 d10 e5, PS)”, the target mRNA inhibition was 87% and 86% (HepG2, 2.5 µM); 94% and 93% (HepG2, 10 µM).
“GCTCATGAGAAGCTTAGAAG (sugars e5 d10 e5, PS)” gave a target mRNA inhibition (HepG2, 2.5 µM) of 66% and a target mRNA inhibition (HepG2, 10 µM) of 86%.
In the case of “GCTGAGAGAGACAATGAGTA (sugars e5 d10 e5, PS)”, for the setting “HepG2, 0.12 µM”, the target mRNA inhibition was 54%.
In the case of “GCTGATTACAAGCTGATTCT (sugars e5 d10 e5, PS)”, the target mRNA inhibition is 59% (HepG2, 2.5 µM) and 76% (HepG2, 10 µM).
As to “GCTGGATGGGAAAGTAGTCT (sugars e5 d10 e5, PS)”, the target mRNA inhibition (HepG2, 0.12 µM) came to 22%.
